Among the data in ChEMBL document CHEMBL1128493, “Synthesis and sigma binding properties of 2'-substituted 5,9 alpha-dimethyl-6,7-benzomorphans” (J Med Chem, 1995) are Ki values, retold here.

Experiment [1] is described as follows: Binding affinity at Sigma receptor type 2 on rat liver membranes receptor by [3H]DTG displacement.
Experiment [2] can be described thus: Binding affinity measured on Sigma receptor type 1 from guinea pig brain membranes using [3H]pentazocine as radioligand.

Usually Ki stands for the equilibrium dissociation constant of an inhibitor or competing ligand from its target. Lower therefore signals a stronger hold on the target. `CC1C2Cc3ccc(O)cc3C1(C)CCN2Cc1ccccc1` (single isomer, unassigned; (+)): the Ki in experiment [1] was found to be 1710 nM; in experiment [2] it was 0.67 nM.
